Results taken from patent publication US12240844B2 (Voronoi, Inc., priority 2019, dated 2025).

Legend:
[1] = target: T1, human GST-DYRK1A (full length) (Homo sapiens, UniProt Q13627); experiment: GST-DYRK1A enzyme inhibition, ADP-Glo kinase assay; type: biochemical; conditions: read-out: DYRK1 IC50
T1 construct: purified human GST-DYRK1A (full length, Thermo scientifics) enzyme; GST; purchased Thermo scientifics
Procedure: (§1) In order to evaluate the inhibitory activity of the compounds according to the present invention on LRRK2, LRRK2 (G2019S), DYRK1, CLK1 and TTK kinases, the following experiment was performed.
(§2) Example compounds were reacted with the purified human GST-DYRK1A (full length, Thermo scientifics) enzyme to evaluate the enzyme inhibitory ability as follows. As the reaction buffer, the composition of 40 mM Tris-HCl pH 7.4, 20 mM MgCl2, 0.5 mg/mL BSA, and 50 uM DTT was used, and the reaction of all test materials was performed on the reaction buffer. During the test, the human GST-DYRK1A (full length, 10 ng) enzyme, the purified ATP (10 uM), and a specific substrate solution were reacted at 25° C. for 1 hour, and then the enzyme activity was identified using the in vitro ADP-Glo™ kinase assay (promega). Luminescence was measured by reacting the enzyme activity reaction solution, an ADP-Glo reaction solution and the enzyme potency detection solution in a ratio of 2:2:1. The degree of inhibition of enzyme activity according to the treatment concentrations of the respective compounds was calculated based on the fluorescence of the enzyme activity of a solvent control group that was not treated with the compound, where the concentration of each compound to inhibit enzyme activity inhibition by 50% was determined as an IC50 (nM) value. The IC50 of each compound was determined in triplicate data sets and obtained using Prism (version 7.01, GraphPad) software.
(§3) In the table below, the following designations were used for the evaluation of enzyme inhibitory ability.

human GST-CLK1 (129-end) = target: T2, human GST-CLK1 (129-end) (Homo sapiens, UniProt P49759); experiment: GST-CLK1 enzyme inhibition, ADP-Glo kinase assay; type: biochemical; conditions: ATP 10 uM
T2 construct: purified human GST-CLK1 (129-end, Signalchem) enzyme; GST; purchased Signalchem
Procedure: as §1
as §2, with “GST-CLK1 (129-end, Signalchem)” for “GST-DYRK1A (full length, Thermo scientifics)”, “GST-CLK1 (129-end, 3” for “GST-DYRK1A (full length, 10”
as §3

T2 sequence (P49759 129-484 limits assumed): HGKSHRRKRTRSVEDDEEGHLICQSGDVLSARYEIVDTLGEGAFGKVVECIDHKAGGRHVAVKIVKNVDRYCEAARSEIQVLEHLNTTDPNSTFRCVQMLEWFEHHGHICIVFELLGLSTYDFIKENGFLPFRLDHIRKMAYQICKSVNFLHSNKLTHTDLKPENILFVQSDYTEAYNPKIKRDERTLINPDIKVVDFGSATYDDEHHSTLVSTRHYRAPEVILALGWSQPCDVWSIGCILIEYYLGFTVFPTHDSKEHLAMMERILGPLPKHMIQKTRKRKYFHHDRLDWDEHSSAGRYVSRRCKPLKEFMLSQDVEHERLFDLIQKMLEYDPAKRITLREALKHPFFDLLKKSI

CCNc1cc(Nc2ccc(C(=O)N3CCC(N4CCOCC4)CC3)c3c2OCO3)nc2[nH]cc(C#N)c12 [Example 34, 4-(ethylamino)-6-((7-(4-morpholinopiperidine-1-carbonyl)benzo[d] [1,3]dioxol-4-yl)amino)-1H-pyrrolo[2,3-b]pyridine-3-carbonitrile]
IC50 [1]: < 100 nM | IC50 (human GST-CLK1 (129-end)): < 100 nM

CCOCCNc1cc(Nc2ccc(C(=O)N3CCC(N4CCOCC4)CC3)c3c2OCCO3)nc2[nH]cc(C(F)(F)F)c12 [Example 167, (8-((4-((2-ethoxyethyl)amino)-3-(trifluoromethyl)-1H-pyrrolo[2,3-b]pyridin-6-yl)amino)-2,3-dihydrobenzo[b] [1,4]dioxin-5-yl)(4-morpholinopiperidin-1-yl)methanone]
IC50 [1]: < 100 nM | IC50 (human GST-CLK1 (129-end)): < 100 nM

COc1cc(S(C)(=O)=O)ccc1Nc1cc(NC2CCCCC2)c2c(Cl)c[nH]c2n1 [Example 86, 3-chloro-N^4-cyclohexyl-N^6-(2-methoxy-4-(methylsulfonyl)phenyl)-1H-pyrrolo[2,3-b]pyridine-4,6-diamine]
IC50 [1]: 301 to 1000 nM | IC50 (human GST-CLK1 (129-end)): 301 to 1000 nM

COCCNc1cc(Nc2ccc(S(=O)(=O)N3CCOCC3)cc2OC)nc2[nH]cc(Cl)c12 [Example 71, 3-chloro-N^6-(2-methoxy-4-(morpholinosulfonyl)phenyl)-N^4-(2-methoxyethyl)-1H-pyrrolo[2,3-b]pyridine-4,6-diamine]
IC50 [1]: 301 to 1000 nM | IC50 (human GST-CLK1 (129-end)): 301 to 1000 nM

COc1cc(S(=O)(=O)N2CCC(N3CCOCC3)CC2)ccc1Nc1cc(NCCS(C)(=O)=O)c2c(Cl)c[nH]c2n1 [Example 79, 3-chloro-N^6-(2-methoxy-4-((morpholinopiperidin-1-yl)sulfonyl)phenyl)-N^4-(2-(methylsulfonyl)ethyl)-1H-pyrrolo[2,3-b]pyridine-4,6-diamine]
IC50 [1]: < 100 nM | IC50 (human GST-CLK1 (129-end)): < 100 nM

O=C(c1ccc(Nc2cc(NC3CCC3)c3c(C(F)(F)F)c[nH]c3n2)c2c1OCCO2)N1CCC(N2CCOCC2)CC1 [Example 176, (8-((4-(cyclobutylamino)-3-(trifluoromethyl)-1H-pyrrolo[2,3-b]pyridin-6-yl)amino)-2,3-dihydrobenzo[b] [1,4]dioxin-5-yl)(4-morpholinopiperidin-1-yl)methanone]
IC50 [1]: < 100 nM | IC50 (human GST-CLK1 (129-end)): < 100 nM

N#Cc1c[nH]c2nc(Nc3ccc(C(=O)N4CCOCC4)c4c3OCCO4)cc(NC3CCC3)c12 [Example 36, 4-(cyclobutylamino)-6-((8-(morpholine-4-carbonyl)-2,3-dihydrobenzo[b] [1,4]dioxin-5-yl)amino)-1H-pyrrolo[2,3-b]pyridine-3-carbonitrile]
IC50 [1]: 301 to 1000 nM | IC50 (human GST-CLK1 (129-end)): 301 to 1000 nM

CCOCCNc1cc(Nc2ccc(C(=O)N3CCOCC3)c3c2OCCO3)nc2[nH]cc(C(F)(F)F)c12 [Example 166, (8-((4-((2-ethoxyethyl)amino)-3-(trifluoromethyl)-1H-pyrrolo[2,3-b]pyridin-6-yl)amino)-2,3-dihydrobenzo[b] [1,4]dioxin-5-yl)(morpholino) methanone]
IC50 [1]: 101 to 300 nM | IC50 (human GST-CLK1 (129-end)): 301 to 1000 nM

CCCCNc1cc(Nc2ccc(C(=O)N3CCC(N4CCOCC4)CC3)c3c2OCCO3)nc2[nH]cc(C(F)(F)F)c12 [Example 170, (8-((4-(butylamino)-3-(trifluoromethyl)-1H-pyrrolo[2,3-b]pyridin-6-yl)amino)-2,3-dihydrobenzo[b] [1,4]dioxin-5-yl)(4-morpholinopiperidin-1-yl)methanone]
IC50 [1]: 301 to 1000 nM | IC50 (human GST-CLK1 (129-end)): < 100 nM

CCCCNc1cc(Nc2ccc(C(=O)N3CCOCC3)c3c2OCCO3)nc2[nH]cc(C(F)(F)F)c12 [Example 169, (8-((4-(butylamino)-3-(trifluoromethyl)-1H-pyrrolo[2,3-b]pyridin-6-yl)amino)-2,3-dihydrobenzo [b] [1,4]dioxin-5-yl)(morpholino) methanone]
IC50 [1]: 301 to 1000 nM | IC50 (human GST-CLK1 (129-end)): 301 to 1000 nM

COc1cc(P(C)(C)=O)ccc1Nc1cc(C2CC2)c2c(C#N)c[nH]c2n1 [Example 230, 4-cyclopropyl-6-((4-(dimethylphosphoryl)-2-methoxyphenyl)amino)-1H-pyrrolo[2,3-b]pyridine-3-carbonitrile]
IC50 [1]: 301 to 1000 nM | IC50 (human GST-CLK1 (129-end)): 301 to 1000 nM
